Source: patent US12258328B2, “6-membered heteroaryl-containing aminopyridine compounds as EGFR inhibitors” (YUHAN CORPORATION, priority 2021, dated 2025)
Like-named read-outs stand apart in the source and are kept apart here.

Assays:
[1] = biological target: EGFR L858R/C797S (Homo sapiens, UniProt P00533, C797S/L858R); test: Biochemical EGFR kinase assay (Lance Ultra TR-FRET), double mutant L858R/C797S
How it was run: (§1)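 Kinase activity is measured by TR-FRET phosphopeptide detection. Compounds span 0.003 μM to 10 μM; the 1 h reaction at room temperature is quenched with EDTA, then labelled antibody (2 nM) is incubated 60 min before reading.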

[2] = biological target: EGFR L858R/T790M/C797S (Homo sapiens, UniProt P00533, C797S/L858R/T790M); test: Biochemical EGFR kinase assay (Lance Ultra TR-FRET), triple mutant L858R/T790M/C797S
Chain of EGFR L858R/T790M/C797S (P00533 25-1210 T790M/C797S/L858R): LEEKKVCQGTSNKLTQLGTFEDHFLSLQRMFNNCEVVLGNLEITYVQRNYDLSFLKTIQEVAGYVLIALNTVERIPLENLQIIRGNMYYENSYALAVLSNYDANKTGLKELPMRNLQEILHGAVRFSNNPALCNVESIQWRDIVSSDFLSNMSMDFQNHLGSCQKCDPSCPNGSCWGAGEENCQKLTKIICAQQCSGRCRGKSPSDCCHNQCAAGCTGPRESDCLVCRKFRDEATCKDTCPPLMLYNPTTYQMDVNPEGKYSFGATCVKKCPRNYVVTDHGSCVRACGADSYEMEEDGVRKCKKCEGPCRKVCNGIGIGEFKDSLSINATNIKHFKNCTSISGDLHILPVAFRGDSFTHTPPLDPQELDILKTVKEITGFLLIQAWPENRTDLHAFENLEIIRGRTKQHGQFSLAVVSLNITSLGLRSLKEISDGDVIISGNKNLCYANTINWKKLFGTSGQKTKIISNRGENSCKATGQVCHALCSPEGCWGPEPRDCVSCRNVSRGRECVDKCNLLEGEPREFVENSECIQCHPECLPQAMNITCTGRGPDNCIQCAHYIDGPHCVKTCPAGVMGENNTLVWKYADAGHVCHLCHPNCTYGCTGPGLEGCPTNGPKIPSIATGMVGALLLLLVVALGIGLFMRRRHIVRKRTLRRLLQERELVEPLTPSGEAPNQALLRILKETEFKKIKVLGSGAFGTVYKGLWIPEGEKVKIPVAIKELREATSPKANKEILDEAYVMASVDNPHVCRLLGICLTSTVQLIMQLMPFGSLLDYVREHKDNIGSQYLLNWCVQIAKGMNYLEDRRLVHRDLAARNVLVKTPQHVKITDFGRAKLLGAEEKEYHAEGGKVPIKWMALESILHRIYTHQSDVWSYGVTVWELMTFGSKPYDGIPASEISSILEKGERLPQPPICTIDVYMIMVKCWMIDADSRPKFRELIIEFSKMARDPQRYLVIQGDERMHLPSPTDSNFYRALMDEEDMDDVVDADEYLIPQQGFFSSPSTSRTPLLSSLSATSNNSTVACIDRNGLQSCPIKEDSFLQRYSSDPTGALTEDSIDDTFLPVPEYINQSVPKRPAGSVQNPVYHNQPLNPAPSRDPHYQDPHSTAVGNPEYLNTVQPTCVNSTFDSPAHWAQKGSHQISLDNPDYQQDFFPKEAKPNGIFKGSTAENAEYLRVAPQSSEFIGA
How it was run: as §1

[3] = biological target: EGFR del19/T790M/C797S (Homo sapiens, UniProt P00533, C797S/DEL746-750/T790M); test: Biochemical EGFR kinase assay (Lance Ultra TR-FRET), triple mutant del19/T790M/C797S
Chain of EGFR del19/T790M/C797S (P00533 with tags, fused parts or gaps DEL746-750/T790M/C797S): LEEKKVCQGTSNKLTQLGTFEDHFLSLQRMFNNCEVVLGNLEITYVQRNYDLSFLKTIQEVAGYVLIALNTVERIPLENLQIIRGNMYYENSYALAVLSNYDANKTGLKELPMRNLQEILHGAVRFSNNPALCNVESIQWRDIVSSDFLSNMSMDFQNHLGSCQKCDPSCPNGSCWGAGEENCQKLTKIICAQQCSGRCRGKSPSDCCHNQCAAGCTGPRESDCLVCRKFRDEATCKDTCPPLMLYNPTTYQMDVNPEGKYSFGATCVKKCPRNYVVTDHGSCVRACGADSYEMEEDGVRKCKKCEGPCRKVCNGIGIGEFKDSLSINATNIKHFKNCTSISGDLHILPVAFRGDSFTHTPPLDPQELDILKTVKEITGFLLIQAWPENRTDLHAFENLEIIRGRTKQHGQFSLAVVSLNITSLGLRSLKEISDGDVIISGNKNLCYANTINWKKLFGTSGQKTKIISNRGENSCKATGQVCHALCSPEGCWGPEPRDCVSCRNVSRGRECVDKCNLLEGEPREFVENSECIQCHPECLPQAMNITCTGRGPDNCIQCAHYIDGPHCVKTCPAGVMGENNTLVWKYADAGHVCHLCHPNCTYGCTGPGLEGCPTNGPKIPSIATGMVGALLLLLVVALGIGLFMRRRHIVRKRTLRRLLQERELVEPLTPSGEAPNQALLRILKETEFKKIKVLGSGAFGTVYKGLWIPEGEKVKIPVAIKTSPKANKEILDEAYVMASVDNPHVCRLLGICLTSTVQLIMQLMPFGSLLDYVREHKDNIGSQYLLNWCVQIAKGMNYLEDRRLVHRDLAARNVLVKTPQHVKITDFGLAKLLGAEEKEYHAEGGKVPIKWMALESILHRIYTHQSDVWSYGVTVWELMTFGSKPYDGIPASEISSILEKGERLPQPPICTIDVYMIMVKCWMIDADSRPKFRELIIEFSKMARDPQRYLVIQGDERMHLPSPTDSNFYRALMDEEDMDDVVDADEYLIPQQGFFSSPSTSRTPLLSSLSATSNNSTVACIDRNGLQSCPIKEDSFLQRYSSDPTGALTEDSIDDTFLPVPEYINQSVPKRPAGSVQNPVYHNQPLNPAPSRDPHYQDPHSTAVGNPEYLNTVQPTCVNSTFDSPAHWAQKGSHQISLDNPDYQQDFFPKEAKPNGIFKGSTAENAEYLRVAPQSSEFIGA
How it was run: as §1

[4] = biological target: EGFR del19/C797S (Homo sapiens, UniProt P00533, C797S/DEL746-750); test: Biochemical EGFR kinase assay (Lance Ultra TR-FRET), double mutant del19/C797S
Chain of EGFR del19/C797S (P00533 with tags, fused parts or gaps DEL746-750/C797S): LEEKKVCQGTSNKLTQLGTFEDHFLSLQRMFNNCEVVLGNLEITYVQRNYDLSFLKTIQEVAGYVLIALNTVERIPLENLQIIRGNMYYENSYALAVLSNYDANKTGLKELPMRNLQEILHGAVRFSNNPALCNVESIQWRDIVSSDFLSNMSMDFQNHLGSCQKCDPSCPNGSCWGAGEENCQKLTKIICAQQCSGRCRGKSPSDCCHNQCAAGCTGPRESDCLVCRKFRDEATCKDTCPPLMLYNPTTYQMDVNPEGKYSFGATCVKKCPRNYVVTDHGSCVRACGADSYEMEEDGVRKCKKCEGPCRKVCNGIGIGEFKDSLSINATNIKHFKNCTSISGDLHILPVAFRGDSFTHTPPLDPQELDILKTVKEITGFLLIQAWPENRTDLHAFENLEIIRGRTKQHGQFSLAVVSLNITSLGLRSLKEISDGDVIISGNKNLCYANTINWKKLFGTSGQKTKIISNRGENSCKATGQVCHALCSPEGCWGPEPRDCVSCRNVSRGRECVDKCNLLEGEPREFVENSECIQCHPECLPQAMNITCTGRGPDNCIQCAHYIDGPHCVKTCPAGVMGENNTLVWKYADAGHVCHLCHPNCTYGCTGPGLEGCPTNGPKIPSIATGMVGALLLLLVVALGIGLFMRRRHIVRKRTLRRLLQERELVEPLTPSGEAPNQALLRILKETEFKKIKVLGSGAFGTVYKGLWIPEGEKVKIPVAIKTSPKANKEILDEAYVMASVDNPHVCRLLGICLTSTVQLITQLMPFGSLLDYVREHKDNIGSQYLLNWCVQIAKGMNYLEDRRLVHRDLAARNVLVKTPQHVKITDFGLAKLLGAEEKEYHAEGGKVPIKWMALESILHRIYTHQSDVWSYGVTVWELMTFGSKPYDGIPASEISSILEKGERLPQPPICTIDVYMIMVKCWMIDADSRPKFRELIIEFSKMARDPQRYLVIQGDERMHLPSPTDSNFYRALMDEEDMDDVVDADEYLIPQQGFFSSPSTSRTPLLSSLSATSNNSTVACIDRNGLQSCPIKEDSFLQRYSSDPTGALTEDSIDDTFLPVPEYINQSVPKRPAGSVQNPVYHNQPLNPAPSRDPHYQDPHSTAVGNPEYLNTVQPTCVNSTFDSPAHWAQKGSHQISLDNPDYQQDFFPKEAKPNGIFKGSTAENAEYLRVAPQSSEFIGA
How it was run: as §1

[5] = biological target: EGFR wildtype (Homo sapiens, UniProt P00533); test: Biochemical EGFR kinase assay (Lance Ultra TR-FRET), wildtype
How it was run: as §1

[6] = ATP at Km, read-out: IC50 L858R/C797S, Km ATP
[7] = ATP at Km, read-out: IC50 L858R/T790M/C797S, Km ATP
[8] = IC50 L858R/T790M/C797S, 100 μM ATP
[9] = ATP at Km, read-out: IC50 del19/T790M/C797S, Km ATP
[10] = IC50 del19/T790M/C797S, 100 μM ATP
[11] = ATP at Km, read-out: IC50 del19/C797S, Km ATP
[12] = ATP at Km, read-out: IC50 WT, Km ATP
[13] = Km ATP, read-out: IC50 L858R/C797S (nM) Km ATP
[14] = Km ATP, read-out: IC50 L858R/T790M/C797S (nM) Km ATP
[15] = Km ATP, read-out: IC50 del19/T790M/C797S (nM) Km ATP
[16] = Km ATP, read-out: IC50 del19/C797S (nM) Km ATP
[17] = Km ATP, read-out: IC50 WT (nM) Km ATP
[18] = IC50 L858R/C797S (nM) 100 μM ATP, 100 μM ATP
[19] = IC50 L858R/T790M/C797S (nM) 100 μM ATP, 100 μM ATP
[20] = IC50 del19/T790M/C797S (nM) 100 μM ATP, 100 μM ATP
[21] = IC50 del19/C797S (nM) 100 μM ATP, 100 μM ATP
[22] = IC50 WT (nM) 100 μM ATP, 100 μM ATP

Chain of EGFR L858R/C797S (P00533 25-1210 C797S/L858R): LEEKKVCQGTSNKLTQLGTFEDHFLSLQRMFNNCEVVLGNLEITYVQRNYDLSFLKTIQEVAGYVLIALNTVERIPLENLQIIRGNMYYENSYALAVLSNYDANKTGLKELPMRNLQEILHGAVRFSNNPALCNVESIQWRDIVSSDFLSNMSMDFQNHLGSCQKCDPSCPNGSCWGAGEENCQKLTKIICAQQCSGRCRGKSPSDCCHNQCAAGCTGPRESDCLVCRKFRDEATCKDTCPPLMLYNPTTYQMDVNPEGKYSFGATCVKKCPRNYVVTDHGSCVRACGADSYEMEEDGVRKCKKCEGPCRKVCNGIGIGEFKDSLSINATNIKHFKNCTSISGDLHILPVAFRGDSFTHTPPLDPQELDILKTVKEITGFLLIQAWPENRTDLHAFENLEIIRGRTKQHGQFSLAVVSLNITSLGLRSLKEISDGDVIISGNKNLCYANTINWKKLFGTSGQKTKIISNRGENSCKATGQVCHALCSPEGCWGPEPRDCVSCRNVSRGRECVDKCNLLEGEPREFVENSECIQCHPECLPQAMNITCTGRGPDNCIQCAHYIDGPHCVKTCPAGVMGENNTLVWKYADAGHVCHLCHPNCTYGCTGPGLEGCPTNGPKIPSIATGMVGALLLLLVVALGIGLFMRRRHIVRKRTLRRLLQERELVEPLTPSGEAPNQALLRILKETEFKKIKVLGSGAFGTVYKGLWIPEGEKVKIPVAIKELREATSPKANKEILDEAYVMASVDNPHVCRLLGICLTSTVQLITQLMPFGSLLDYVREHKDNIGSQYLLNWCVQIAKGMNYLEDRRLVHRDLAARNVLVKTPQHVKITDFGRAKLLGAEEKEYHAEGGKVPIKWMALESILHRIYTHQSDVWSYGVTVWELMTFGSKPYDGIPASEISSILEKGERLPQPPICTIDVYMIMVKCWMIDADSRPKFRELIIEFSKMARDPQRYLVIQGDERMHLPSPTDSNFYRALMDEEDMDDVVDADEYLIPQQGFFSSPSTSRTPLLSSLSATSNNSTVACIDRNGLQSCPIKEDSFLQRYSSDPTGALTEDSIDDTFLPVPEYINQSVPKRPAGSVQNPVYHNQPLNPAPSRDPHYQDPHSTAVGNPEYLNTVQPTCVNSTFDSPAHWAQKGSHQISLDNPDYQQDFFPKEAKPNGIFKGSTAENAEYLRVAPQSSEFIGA

Row | Structure (SMILES) | IC50 [1, 6] [nM] | IC50 ([1]; IC50 L858R/C797S, 100 μM ATP) [nM] | IC50 [2, 7] [nM] | IC50 [2, 8] [nM] | IC50 [3, 9] [nM] | IC50 [3, 10] [nM] | IC50 [4, 11] [nM] | IC50 ([4]; IC50 del19/C797S, 100 μM ATP) [nM] | IC50 [5, 12] [nM] | IC50 ([5]; IC50 WT, 100 μM ATP) [nM] | IC50 [1, 13] [nM] | IC50 [2, 14] [nM] | IC50 [3, 15] [nM] | IC50 [4, 16] [nM] | IC50 [5, 17] [nM] | IC50 [1, 18] [nM] | IC50 [2, 19] [nM] | IC50 [3, 20] [nM] | IC50 [4, 21] [nM] | IC50 [5, 22] [nM]
1 | CC(C)(F)c1ccc(-c2cnc(Nc3ccnc(-c4cnn(S(=O)(=O)C5CC5)c4)n3)cc2N[C@H]2CC[C@@H](C(C)(C)O)CC2)nc1 [Example 236, 2-((1s,4s)-4-((6′-((2-(1-(Cyclopropylsulfonyl)-1H-pyrazol-4-yl)pyrimidin-4-yl)amino)-5-(2-fluoropropan-2-yl)-[2,3′-bipyridin]-4′-yl)amino)cyclohexyl)propan-2-ol] | 3 | 177 | 1.9 | 6.4 | 2.5 | 9.1 | 9.1 | 24.4 | 41.8 | > 10000 |  |  |  |  |  |  |  |  |  | 
2 | C[C@]1(O)CC[C@@H](Nc2cc(Nc3ccnc(-c4cnn(S(=O)(=O)C5CC5)c4)n3)ncc2-c2cc(OC(F)F)ccn2)CC1 [Example 331, (1s,4s)-4-((6′-((2-(1-(Cyclopropylsulfonyl)-1H-pyrazol-4-yl)pyrimidin-4-yl)amino)-4-(difluoromethoxy)-[2,3′-bipyridin]-4′-yl)amino)-1-methylcyclohexan-1-ol] |  |  |  |  |  |  |  |  |  |  | 2.4 | 0.7 | 1.9 | 3.5 | 17.4 |  |  |  |  | 
3 | CC1CCN(S(=O)(=O)c2ccc(-c3cnc(Nc4ccnc(-c5cnn(S(=O)(=O)C6CC6)c5)n4)cc3N[C@H]3CC[C@@H](C(C)(C)O)CC3)nc2)CC1 [Example 187, 2-((1s,4s)-4-((6′-((2-(1-(Cyclopropylsulfonyl)-1H-pyrazol-4-yl)pyrimidin-4-yl)amino)-5-((4-methylpiperidin-1-yl)sulfonyl)-[2,3′-bipyridin]-4′-yl)amino)cyclohexyl)propan-2-ol] |  | 1950 |  | 96.9 |  | 239 |  | 178 |  | > 10000 |  |  |  |  |  |  |  |  |  | 
4 | C[C@]1(O)CC[C@@H](Nc2cc(Nc3ccnc(-c4cnn(S(=O)(=O)C5CC5)c4)n3)ncc2-c2cnc(N3CCC(F)(F)CC3)cn2)CC1 [Example 75, (1s,4s)-4-((2-((2-(1-(Cyclopropylsulfonyl)-1H-pyrazol-4-yl)pyrimidin-4-yl)amino)-5-(5-(4,4-difluoropiperidin-1-yl)pyrazin-2-yl)pyridin-4-yl)amino)-1-methylcyclohexan-1-ol] |  |  |  |  |  |  |  |  |  |  | 68.9 | 6.6 | 8.7 | 34 | 143 | 313 | 15.2 | 15.2 | 33.2 | > 10000
5 | COC1CN(c2ccc(-c3cnc(Nc4ccnc(-c5cnn(S(=O)(=O)C6CC6)c5)n4)cc3N[C@H]3CC[C@@H](CN(C)C)CC3)nc2)C1 [Example 93, N^6′-(2-(1-(Cyclopropylsulfonyl)-1H-pyrazol-4-yl)pyrimidin-4-yl)-N^4′-((1s,4s)-4-((dimethylamino)methyl)cyclohexyl)-5-(3-methoxyazetidin-1-yl)-[2,3′-bipyridine]-4′,6′-diamine] |  |  |  |  |  |  |  |  |  |  | 0.3 | 0.1 | 0.3 | 0.2 | 0.1 | 2.2 | 0.3 | 0.4 | 0.5 | 172
6 | CC(C)(O)[C@H]1CC[C@@H](Nc2cc(Nc3ccnc(-c4cnn(S(=O)(=O)C5CC5)c4)n3)ncc2-c2ccc(CN3CCC(O)CC3)cn2)CC1 [Example 98, 1-((6′-((2-(1-(Cyclopropylsulfonyl)-1H-pyrazol-4-yl)pyrimidin-4-yl)amino)-4′-(((1s,4s)-4-(2-hydroxypropan-2-yl)cyclohexyl)amino)-[2,3′-bipyridin]-5-yl)methyl) piperidin-4-ol] |  |  |  |  |  |  |  |  |  |  |  | 0.1 | 0.4 |  |  | 1.9 | 0.2 | 0.5 | 0.3 | 152
7 | CC(C)N1CCN(Cc2ccc(-c3cnc(Nc4ccnc(-c5cnn(S(=O)(=O)C6CC6)c5)n4)cc3N[C@H]3CC[C@@](C)(O)CC3)nc2)CC1 [Example 34, (1s,4s)-4-((6′-((2-(1-(Cyclopropylsulfonyl)-1H-pyrazol-4-yl)pyrimidin-4-yl)amino)-5-((4-isopropylpiperazin-1-yl)methyl)-[2,3′-bipyridin]-4′-yl)amino)-1-methylcyclohexan-1-ol] |  |  |  |  |  |  |  |  |  |  | 0.1 | 0.1 | 0.6 | 0.2 | 0.5 | 0.2 | 0.3 | 0.6 | 0.4 | 61.1
8 | O=S(=O)(C1CC1)n1cc(-c2nccc(Nc3cc(NC4CCC(F)(CO)CC4)c(-c4cccc(F)n4)cn3)n2)cn1 (stereo not shown) [Example 162, (4-((6′-((2-(1-(Cyclopropylsulfonyl)-1H-pyrazol-4-yl)pyrimidin-4-yl)amino)-6-fluoro-[2,3′-bipyridin]-4′-yl)amino)-1-fluorocyclohexyl)methanol] | 19.9 | 1530 | 0.4 | 3 | 0.5 | 1.3 | 13.1 | 21 | 2970 | > 10000 |  |  |  |  |  |  |  |  |  | 
9 | CN1CCN(Cc2ccc(-c3cnc(Nc4ccnc(-c5cnn(S(=O)(=O)C6CC6)c5)n4)cc3N[C@H]3CC[C@@](C)(O)CC3)nc2)CC1 [Example 9, (1s,4s)-4-((6′-((2-(1-(Cyclopropylsulfonyl)-1H-pyrazol-4-yl)pyrimidin-4-yl)amino)-5-((4-methylpiperazin-1-yl)methyl)-[2,3′-bipyridin]-4′-yl)amino)-1-methylcyclohexan-1-ol] |  |  |  |  |  |  |  |  |  |  | 0.2 | 0.1 |  | 0.2 | 1 | 1.9 | 0.3 | 0.1 | 0.7 | 167

Other lines, results leading:

Row | IC50 [1, 6] [nM] | IC50 ([1]; IC50 L858R/C797S, 100 μM ATP) [nM] | IC50 [2, 7] [nM] | IC50 [2, 8] [nM] | IC50 [3, 9] [nM] | IC50 [3, 10] [nM] | IC50 [4, 11] [nM] | IC50 ([4]; IC50 del19/C797S, 100 μM ATP) [nM] | IC50 [5, 12] [nM] | IC50 ([5]; IC50 WT, 100 μM ATP) [nM] | IC50 [1, 13] [nM] | IC50 [2, 14] [nM] | IC50 [3, 15] [nM] | IC50 [4, 16] [nM] | IC50 [5, 17] [nM] | IC50 [1, 18] [nM] | IC50 [2, 19] [nM] | IC50 [3, 20] [nM] | IC50 [4, 21] [nM] | IC50 [5, 22] [nM] | Structure (SMILES)
10 | 0.4 | 3.5 | 0.2 | 0.2 | 0.3 | 0.7 | 0.7 | 0.6 | 2 | 1440 |  |  |  |  |  |  |  |  |  |  | C[C@]1(O)CC[C@@H](Nc2cc(Nc3ccnc(-c4cnn(S(=O)(=O)C5CC5)c4)n3)ncc2-c2ccc(OCCO)cn2)CC1 [Example 205, (1s,4s)-4-((6′-((2-(1-(Cyclopropylsulfonyl)-1H-pyrazol-4-yl)pyrimidin-4-yl)amino)-5-(2-hydroxyethoxy)-[2,3′-bipyridin]-4′-yl)amino)-1-methylcyclohexan-1-ol]
11 |  |  |  |  |  |  |  |  |  |  | 4.3 | 0.1 | 0.3 | 9.7 | 7.4 |  |  |  |  |  | CC(C)Nc1cc(Nc2ccnc(-c3cnn(S(=O)(=O)C4CC4)c3)n2)ncc1-c1cnc(OCCN(C)C)cn1 [Example 122, N^2-(2-(1-(Cyclopropylsulfonyl)-1H-pyrazol-4-yl)pyrimidin-4-yl)-5-(5-(2-(dimethylamino)ethoxy)pyrazin-2-yl)-N^4-isopropylpyridine-2,4-diamine]
12 | 0.2 |  | 0.1 |  | 0.2 |  | 0.3 |  | 2.7 |  |  |  |  |  |  |  |  |  |  |  | CN1CCC(F)(COc2cnc(-c3cnc(Nc4ccnc(-c5cnn(S(=O)(=O)C6CC6)c5)n4)cc3N[C@H]3CC[C@@](C)(O)CC3)cn2)CC1 [Example 154, (1s,4s)-4-((2-((2-(1-(Cyclopropylsulfonyl)-1H-pyrazol-4-yl)pyrimidin-4-yl)amino)-5-(5-((4-fluoro-1-methylpiperidin-4-yl)methoxy)pyrazin-2-yl)pyridin-4-yl)amino)-1-methylcyclohexan-1-ol]
13 |  |  |  |  |  |  |  |  |  |  | 0.1 | 0.2 | 0.4 | 0.2 | 0.9 | 0.7 | 0.4 | 0.4 | 0.2 | 107 | CN(C)Cc1ccc(-c2cnc(Nc3ccnc(-c4cnn(S(=O)(=O)C5CC5)c4)n3)cc2N[C@H]2CC[C@@H](C(C)(C)O)CC2)nc1 [Example 26, 2-((1s,4s)-4-((6′-((2-(1-(Cyclopropylsulfonyl)-1H-pyrazol-4-yl)pyrimidin-4-yl)amino)-5-((dimethylamino)methyl)-[2,3′-bipyridin]-4′-yl)amino)cyclohexyl)propan-2-ol]
